The text below walks through data of article PMC4667271, “Discovery of a Novel Inhibitor of the Protein Tyrosine Phosphatase Shp2” (Scientific Reports, 2015).

Assay [1] has as its system ERK1/2 activation in HEK293T cells expressing H-RasV12. Kind of assay: RasV12-induced ERK1/2 activation in transfected HEK293T. As to conditions: Fumos 20 μM or U0126 10 μM, 24 h. The format is cell-based, human. On the procedure:
DMSO treatment as control. […] (c) Fumos inhibits EGF-induced Ras activation.
HEK293T, MDA-MB-231and HeLa cell lines were obtained from CRC/PUMC. Cell lines were maintained in Dulbecco’s modified Eagle’s medium supplemented with 10% fetal bovine serum. Transfections were performed in 6-well plates according to manufacturer (Invitrogen Lipofectamine LTX).Briefly, for transient transfection of HEK293T cells, subconfluent cells in 6-well plates were incubated with 2 ml of Dulbecco’s modified Eagle’s medium containing 2.5 μg of total DNA and 7.5 μl of each Lipofectamine and Plus reagent (Invitrogen) and then serum-starved in DMEM/0.1% bovine serum albumin for 18 h. After Fumos treatment for 24 h, cells were stimulated for 5 min with 20 ng/ml EGF.
After centrifugation, the supernatant was collected.

Assay [2] addresses T1, Shp2 PTP domain (Homo sapiens, UniProt Q06124).
T1 sequence (Q06124 247-517 limits assumed): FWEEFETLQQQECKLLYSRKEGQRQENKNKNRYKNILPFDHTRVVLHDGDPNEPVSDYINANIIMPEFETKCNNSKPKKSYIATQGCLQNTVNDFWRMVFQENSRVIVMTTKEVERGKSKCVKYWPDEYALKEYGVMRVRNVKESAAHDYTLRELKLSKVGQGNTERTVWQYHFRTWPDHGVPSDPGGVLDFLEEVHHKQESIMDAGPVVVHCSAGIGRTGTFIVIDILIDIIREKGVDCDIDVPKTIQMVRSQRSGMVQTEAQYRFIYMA
Briefly: in vitro PTP assay (pNPP), Shp2 PTP domain. It is filed as biochemical. The settings on record: Shp2 PTP domain; pNPP; mean ± S.E.M., triplicate; read-out: IC50. As for the experimental part: (§1) Plasmids for expression of His-tag fusion proteins of human PTP were constructed in PET-28a by PCR subcloning techniques. The constructions contain only the PTP domain except Full-length Shp2. Full-length Shp2 containing Tyr279-to-Ala mutant was generated by PCR-based mutagenesis. All constructs were verified by DNA sequencing. PTP-His fusion proteins were expressed in Escherichia coli BL21 and lysed in the buffer (50 mM NaH2PO4, 300 mM NaCl, 250 mM imidazole, 1 mM dithiothreitol plus 5% glycerol), purified with Ni-NTA Magnetic Agarose Beads (Qiagen). The His-tag recombinant purification protocol was carried out according to the purification under native conditions of the QIAexpress System.
(§2) The assay was set in wells of 96-well plate with a final volume of 100 μl of reaction mixture containing 10 mM of NaAc-HAc, 1 mM of ethylene diamine tetraacetic acid, 1 mM of DL-dithiothreitol and 2% of dimethyl sulfoxide, pH 5.5. Activity of the enzyme was assayed by incubating recombinant PTP protein or mutant PTP with various concentrations of Fumos in the mixture at 37 °C for 30 min. Absorbance at 405 nm was detected immediately after addition of varied concentrations of substrate, p-nitrophenyl phosphate (pNPP) to each corresponding well.

Assay [3] deals with T2, full-length Shp2 (Shp2 FL) (Homo sapiens, UniProt Q06124).
T2 sequence (Q06124 1-593): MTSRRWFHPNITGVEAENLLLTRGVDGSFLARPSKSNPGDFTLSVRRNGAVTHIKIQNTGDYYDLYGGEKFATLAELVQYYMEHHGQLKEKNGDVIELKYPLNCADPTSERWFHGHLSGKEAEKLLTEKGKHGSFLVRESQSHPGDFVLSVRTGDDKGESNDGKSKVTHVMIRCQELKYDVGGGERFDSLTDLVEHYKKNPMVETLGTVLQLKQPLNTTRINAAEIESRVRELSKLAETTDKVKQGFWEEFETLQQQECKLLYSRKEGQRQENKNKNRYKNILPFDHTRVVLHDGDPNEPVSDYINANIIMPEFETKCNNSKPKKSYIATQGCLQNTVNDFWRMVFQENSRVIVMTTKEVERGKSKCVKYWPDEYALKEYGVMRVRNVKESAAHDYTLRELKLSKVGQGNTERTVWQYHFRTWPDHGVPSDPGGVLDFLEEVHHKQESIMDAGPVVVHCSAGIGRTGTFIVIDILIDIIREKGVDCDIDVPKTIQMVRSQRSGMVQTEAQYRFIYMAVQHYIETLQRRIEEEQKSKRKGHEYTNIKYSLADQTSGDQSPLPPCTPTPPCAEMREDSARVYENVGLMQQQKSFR
Kind of assay: in vitro PTP assay (pNPP), full-length Shp2. The format is biochemical. As to conditions: full-length Shp2 (Shp2 FL). As for the experimental part:
as §1, §2

In the case of `N#CC(=C(/N)Sc1ccccc1N)/C(C#N)=C(/N)Sc1ccccc1N` [U0126, reference compound], in assay [1], the “RasV12-induced ERK1/2 activation” value is recorded as “blocked ERK1/2 phosphorylation”.
`[Na+].[Na+].[Na+].[O]=[V]([O-])([O-])[O-]` [sodium orthovanadate, reference compound]: the results for the IC50 in assay [2] and in assay [3] were 620 µM and 630 µM, respectively.
